We go through two compounds from paper PMC6689897, “Drugging an undruggable pocket on KRAS” (Proceedings of the National Academy of Sciences of the …, 2019).

Each structure is given as a SMILES string.

The subject of assay [1] is 4 BRAF(v600E) cell lines (A375, RKO, Colo 201, SK-MEL-28). The assay is described as follows: pERK modulation in BRAF V600E control cell lines. Format: cell-based, human. As to the method:
(§1) 217 The coordinates and structure factors of the structures have been deposited at the
(§2) 218 Protein Data Bank with the accession codes PDB Code 6GJ5, 6GJ6, 6GJ7, 6GJ8.
(§3) 221 Measurements of various protein–protein interactions were performed using the Alpha
(§4) 222 Screen technology developed by Perkin Elmer. Recombinant RAS proteins (H-, N-, K-
(§5) 223 RAS variants; all KRAS variants are based on KRAS isoform 4B (uniprot id P01116-2);
(§6) 224 KRAS (G12D) 1-169, N-terminal 6His-tag, C-terminal avi-tag was from Xtal
(§7) 225 BioStructures, Inc., KRAS (G12C) 1-169, C-terminal avi-tag, biotinylated, mutations:
(§8) 226 C51S, C80L, C118S, NRAS(wt) 1-172, C-terminal avi-tag, biotinylated; HRAS(wt) 1-
(§9) 227 166, C-terminal avi-tag, biotinylated). Biotinylation was performed in vitro with
(§10) 228 recombinant BirA biotin-protein ligase as recommended by the manufacturer (Avidity […]
(§11) 231 PI3KA- RBD (160-317, N-term-HIS_GST-tag) were expressed as glutathione S […]
(§12) 245 for 60 min in the dark at room temperature. Single oxygen induced fluorescence was
(§13) 246 measured at an Enspire multimode plate reader (Perkin Elmer) according to the
(§14) 247 manufacturer’s recommendations. Data were analyzed using the GraphPad Prism data […]
(§15) 313 added according to manufacturer’s instructions. Fluorescence intensity was determined
(§16) 314 using a fluorescence reader (2030 VICTOR X5, Perkin Elmer). […]
(§17) 319 MAPK pathway signaling (pERK, pAKT quantification) […]

The test system of assay [2] is NCI-H358 cells. The experiment in a line: pAKT quantification (Meso Scale Discovery). Format: cell-based, human. The protocol:
as §1, §2, §3, §4, §5, §6, §7, §8, §9, §10, §11, §12, §13, §14, §15, §16, §17

Assay [3] has as its target GTP-KRASG12D::SOS1 (Homo sapiens, UniProt P01116, G12D). The assay is described as follows: KRASG12D::SOS1 GTP TR-FRET assay. Background: TR-FRET usually uses a lanthanide donor and a delayed reading to cut background.

Sequence of GTP-KRASG12D::SOS1 (P01116 1-169 isoform P01116-2 G12D): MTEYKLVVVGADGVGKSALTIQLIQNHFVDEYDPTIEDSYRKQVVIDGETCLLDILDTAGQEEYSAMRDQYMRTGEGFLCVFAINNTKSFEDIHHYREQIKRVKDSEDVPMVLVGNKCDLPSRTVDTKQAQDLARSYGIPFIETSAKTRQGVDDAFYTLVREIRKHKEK

For the compound `Cn1cnc(Cn2ccc3ccc(CNCc4[nH]c5ccccc5c4[C@H]4NC(=O)c5ccc(O)cc54)cc32)c1` [Compound 1], the “inhibition of pERK” value in assay [1] is recorded as “no inhibition of pERK”. For the same compound, the pAKT levels entry in assay [2] (high serum conditions) is “no reduction of pAKT levels”; in assay [2] (starved 24 h low serum, 2 h compound, then EGF), “dose-dependently reduced”.
In the case of `CN(C)Cc1[nH]c2ccccc2c1[C@H]1NC(=O)c2ccc(O)cc21` [Compound 18], in assay [3], the EC50 is 33 µM and inhibition was half-maximal at 33 µM (IC50).

Usually EC50 stands for the concentration that produces a half-maximal response. Lower therefore signals a more potent agent. As a reminder, the IC50 is the concentration that inhibits the measured activity by half. The low end stands for inhibition by little substance, the high end for a need for much substance.
